Source: patent US20230399313A1, “BIOLOGICAL ACTIVITIES OF 5-(2-(4-(4-FLUORO-2-METHYL-1H-INDOL-5-YLOXY)-6-METHOXYQUINOLIN-7-YLOXY)ETHYL)-5-AZASPIRO[2.4]-HEPTAN-7-OL CRYSTALLINE, PHOSPHORIC ACID SALT AND ITS ENANTIOMERS” (Advenchen Pharmaceuticals, LLC, priority 2022, published 2023)

Tests used:
[1] = tested on: breast cancer cell line MCF7; test: Combination therapy MTT assay; type: cell-based, human; conditions: MCF7, combined with aromatase inhibitors Anatrozole and Letrozole, 72 h
Protocol: (§1) Compound A-Xln combination therapy MTT assay results were investigated. 100 μl of cell suspension with a concentration of 5×10^4 cells/ml was added to each well of a 96-well plate, and place in a 37° C., 5% CO2 incubator. After 24 h, Compound A-Xln sample solution was added according to Table 13, 10 μl/well for double-duplicate wells. After 72 hours at 37° C. and 5% CO2 incubation, 20 μl of 5 mg/ml MTT solution was added to each well, then 100 µl/well of dissolving solution was added after 4 hours. The samples were put in an incubator, and a full-wavelength multifunctional enzyme label machine was used after dissolving. The OD value at 570 nm was measured.

[2] = tested on: breast cancer cell line BT474; test: Combination therapy MTT assay; type: cell-based, human; conditions: BT474, combined with aromatase inhibitors Anatrozole and Letrozole, 72 h
Protocol: as §1

NSCLC 95-D = test: In vivo xenograft model; parameters: species or system nude mouse; conditions: 95-D xenograft, oral daily 14-21 days, tumor weight vs control
Protocol: (§2) Animal antitumor activity in vivo xenograft models with various tumor cell lines (SCLC NCI-H1436, NSCLC 95-D, ovarian SKVO3, renal 786-O, liver Bel-7420, brain U87) were performed as follows: The well grown tumor tissues of tumor cell lines were cut into 3 mm pieces, and each nude mouse was subcutaneously inoculated with one piece into the right flank. The animals were grouped and administered at pre-designed dosing. Treatments were initiated when the tumor size reached above 100 mm^3 after 10-14 days. According to the size of tumor, the animals with oversize or undersize tumors were eliminated, and the animals were grouped with similar average tumor volume. Then the animals were orally administrated daily for continuous 14-21 days. The large diameter a (mm) and the small diameter b (mm) were measured with caliper twice a week after inoculation for 13 days. Each tumor volume was calculated by formular: TV=ab^2/2 and the relative tumor volume was calculated as: RTV=Vt/Vo, Vo represents the tumor volume on the first day of treatment; Vt represents the tumor volume on each measurement day. The animals were executed and tumors were extracted by dissection 20-30 days after inoculation. The individual body weight and tumor weight were determined and calculated. Tumor Inhibit percentage was calculated as [1−((TWt)/(TWc)×100%, where TWt represents mean tumor weight of a treated group on the last day during the experiment, TWc represents mean tumor weight of the control group on the last day during the experiment. Experimental dosing and efficacy results are shown in FIGS. 19-24 of Drawing. The best tumor inhibition percentage ranges are >70% to 100%.

ovarian SKVO3 = test: In vivo xenograft model; parameters: species or system nude mouse; conditions: oral daily 14-21 days, tumor weight vs control
Protocol: as §2

brain U87 = test: In vivo xenograft model; parameters: species or system nude mouse; conditions: oral daily 14-21 days, tumor weight vs control
Protocol: as §2

liver Bel-7420 = test: In vivo xenograft model; parameters: species or system nude mouse; conditions: Bel-7420 xenograft, oral daily 14-21 days, tumor weight vs control
Protocol: as §2

SCLC NCI-H1436 = test: In vivo xenograft model; parameters: species or system nude mouse; conditions: oral daily 14-21 days, tumor weight vs control
Protocol: as §2

renal 786-O = test: In vivo xenograft model; parameters: species or system nude mouse; conditions: 786-O xenograft, oral daily 14-21 days, tumor weight vs control
Protocol: as §2

[3] = tested on: colon cancer cell line HCT116; test: Combination therapy MTT assay; type: cell-based, human
Protocol: as §1
(§3) Samples according to Table 14 were also tested for proliferation inhibitor of three colon cancer lines HT29, HCT116 and colo205 by Compound A-Xln, anti-colon cancer agent 5FU/O, and combination of Compound A-Xln and 5FU/O. The results are shown in FIGS. 15-17.

[4] = tested on: colon cancer cell line colo205; test: Combination therapy MTT assay; type: cell-based, human
Protocol: as §1, §3

[5] = tested on: colon cancer cell line HT29; test: Combination therapy MTT assay; type: cell-based, human
Protocol: as §1, §3

BEL-7402 = test: In vitro MTT (proliferation) assay; type: cell-based; conditions: Homo sapiens, Liver

For `COc1cc2c(Oc3ccc4[nH]c(C)cc4c3F)ccnc2cc1OCCN1CC(O)C2(CC2)C1` (stereo not drawn) [Compound A-Xln, 5-(2-(4-(4-fluoro-2-methyl-1H-indol-5-yloxy)-6-methoxyquinolin-7-yloxy)ethyl)-5-azaspiro[2.4]-heptan-7-ol], the “Proliferation inhibition in combination” value [1] was “increased”, the “Proliferation inhibition in combination” value [2] was “increased” and the “best tumor inhibition percentage” value (NSCLC 95-D) was greater than 70%. For the same molecule, the “best tumor inhibition percentage” value (ovarian SKVO3) was greater than 70%, the “best tumor inhibition percentage” value (brain U87) was greater than 70% and the “best tumor inhibition percentage” value (liver Bel-7420) was greater than 70%. The “best tumor inhibition percentage” value (SCLC NCI-H1436) was greater than 70%, the “best tumor inhibition percentage” value (renal 786-O) was greater than 70% and the “Inhibition activity in sequential dosing” value ([3]; HCT116, Compound A-Xln and 5FU/O dosed Day 1/Day 2 in either order) was “higher activity on regimen of dosing chemotherapy agents first followed by dosing Compound A later”. The “Proliferation inhibition in combination” value ([3]; HCT116, combined with 5FU/O) was “increased”, the “Inhibition activity in sequential dosing” value ([4]; colo205, Compound A-Xln and 5FU/O dosed Day 1/Day 2 in either order) was “higher activity on regimen of dosing chemotherapy agents first followed by dosing Compound A later” and the “Proliferation inhibition in combination” value ([4]; colo205, combined with 5FU/O) was “increased”. The “Inhibition activity in sequential dosing” value ([5]; HT29, Compound A-Xln and 5FU/O dosed Day 1/Day 2 in either order) was “higher activity on regimen of dosing chemotherapy agents first followed by dosing Compound A later”, the “Proliferation inhibition in combination” value ([5]; HT29, combined with 5FU/O) was “increased” and the IC50 (BEL-7402) was 860 ± 150 nM.
